For orientation: EC50 means the concentration giving half of the maximal effect. High values mean a need for much substance, low ones an effect from little substance.

The target of the test is Protein cereblon/DNA damage-binding protein 1 (Homo sapiens, UniProt Q96SW2). The test can be described thus: Displacement of BODIPY FL thalidomide from 6His-tagged CRBN/DDB1 (unknown origin) expressed in baculovirus infected Sf9 insect cells incubated for 1 min under shaking condition followed by 60 mins incubation under dark condition by TR-FRET assay. (TR-FRET usually uses a lanthanide donor and a delayed reading to cut background.)
Protein cereblon/DNA damage-binding protein 1, sequence (Q96SW2 whole entry): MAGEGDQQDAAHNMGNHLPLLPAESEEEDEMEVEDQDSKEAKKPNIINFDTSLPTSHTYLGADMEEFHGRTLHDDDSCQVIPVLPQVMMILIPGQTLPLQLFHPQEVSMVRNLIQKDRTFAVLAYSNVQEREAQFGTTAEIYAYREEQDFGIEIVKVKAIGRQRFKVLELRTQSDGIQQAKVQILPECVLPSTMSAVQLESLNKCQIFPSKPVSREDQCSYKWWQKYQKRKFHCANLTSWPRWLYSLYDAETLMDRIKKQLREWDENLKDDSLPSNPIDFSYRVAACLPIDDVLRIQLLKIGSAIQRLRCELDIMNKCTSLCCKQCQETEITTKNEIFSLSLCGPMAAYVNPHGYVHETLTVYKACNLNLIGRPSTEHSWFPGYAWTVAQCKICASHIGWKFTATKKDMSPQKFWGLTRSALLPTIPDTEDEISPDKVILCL
Protein cereblon/DNA damage-binding protein 1, sequence (Q16531 whole entry, further chain): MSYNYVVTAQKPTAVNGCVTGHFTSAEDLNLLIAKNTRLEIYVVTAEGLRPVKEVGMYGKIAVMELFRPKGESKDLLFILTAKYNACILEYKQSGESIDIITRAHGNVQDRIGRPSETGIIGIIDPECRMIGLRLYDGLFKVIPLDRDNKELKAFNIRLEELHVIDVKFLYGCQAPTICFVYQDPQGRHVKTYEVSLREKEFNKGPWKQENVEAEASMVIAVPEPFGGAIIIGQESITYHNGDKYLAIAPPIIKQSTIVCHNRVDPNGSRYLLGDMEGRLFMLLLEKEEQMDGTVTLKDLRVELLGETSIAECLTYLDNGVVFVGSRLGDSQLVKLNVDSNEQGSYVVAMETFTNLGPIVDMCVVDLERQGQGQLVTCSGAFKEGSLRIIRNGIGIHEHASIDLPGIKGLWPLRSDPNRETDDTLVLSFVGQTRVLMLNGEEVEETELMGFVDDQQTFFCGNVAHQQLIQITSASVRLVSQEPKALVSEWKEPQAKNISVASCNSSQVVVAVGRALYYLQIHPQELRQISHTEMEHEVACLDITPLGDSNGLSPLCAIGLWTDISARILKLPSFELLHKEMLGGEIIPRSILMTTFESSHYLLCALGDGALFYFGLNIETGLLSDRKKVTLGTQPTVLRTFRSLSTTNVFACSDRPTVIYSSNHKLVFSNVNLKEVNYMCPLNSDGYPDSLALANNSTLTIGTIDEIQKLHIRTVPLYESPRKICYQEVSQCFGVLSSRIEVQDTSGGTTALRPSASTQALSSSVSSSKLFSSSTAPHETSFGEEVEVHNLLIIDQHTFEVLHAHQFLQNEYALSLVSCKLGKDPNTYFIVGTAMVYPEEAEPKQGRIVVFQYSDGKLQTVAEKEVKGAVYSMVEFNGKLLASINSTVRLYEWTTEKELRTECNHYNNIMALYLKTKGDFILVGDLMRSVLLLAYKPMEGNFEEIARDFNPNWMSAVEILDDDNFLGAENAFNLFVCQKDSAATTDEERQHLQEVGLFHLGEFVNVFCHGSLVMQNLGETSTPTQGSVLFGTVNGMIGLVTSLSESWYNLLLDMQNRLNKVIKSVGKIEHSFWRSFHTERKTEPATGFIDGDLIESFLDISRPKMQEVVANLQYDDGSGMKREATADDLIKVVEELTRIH

In the case of `COc1ccc(OC)c(-n2nnc(C(=O)Nc3cc(NC(=O)Nc4cccc5c4C(=O)N(C4CCC(=O)NC4=O)C5=O)cc(C(C)(C)C)c3)c2C)c1` (stereo unspecified), the EC50 amounted to 0.41 µM.

The compound `CC(C)(C)c1cc(N)cc(Oc2cccc3c2C(=O)N(C2CCC(=O)NC2=O)C3=O)c1` (stereo unspecified) yielded a concentration giving a half-maximal response (EC50) of 0.014 µM.

Compound `CC(=O)Nc1cc(Oc2cccc3c2C(=O)N(C2CCC(=O)NC2=O)C3=O)cc(C(C)(C)C)c1` (stereo unspecified) gave an EC50 of 0.011 µM.

`COc1ccc(OC)c(-n2nnc(S(=O)(=O)c3ccc(C(C)(C)C)cc3)c2C)c1`: the EC50 is over 3 µM.

`COc1ccc(OC)c(-n2nnc(C(=O)Nc3cc(OCC(=O)Nc4cccc5c4C(=O)N(C4CCC(=O)NC4=O)C5=O)cc(C(C)(C)C)c3)c2C)c1` (stereo unspecified) registered an EC50 of over 0.333 µM.

Consider `CC(=O)Nc1cc(Nc2cccc3c2C(=O)N(C2CCC(=O)NC2=O)C3=O)cc(C(C)(C)C)c1` (stereo unspecified), for which the EC50 was determined as 0.0032 µM.

Source of the values: ChEMBL document CHEMBL5143746, “SJPYT-195: A Designed Nuclear Receptor Degrader That Functions as a Molecular Glue Degrader of GSPT1” (ACS Med Chem Lett, 2022).
